The values below come from paper PMC4348537, “Discovery of Novel New Delhi Metallo-β-Lactamases-1 Inhibitors by Multistep Virtual Screening” (PLoS ONE, 2015).

Each structure is given as a SMILES string.

The target in assay [1] is T1, NDM-1 (New Delhi metallo-β-lactamase-1) (Klebsiella pneumoniae, UniProt C7C422).
T1 construct: gene blaNDM-1
Description: nitrocefin hydrolysis assay with purified enzyme, dose-response; similar with […] Triton X-100. Type of assay: biochemical.

For assay [2], the target named is T1, NDM-1 (New Delhi metallo-β-lactamase-1). The assay is described as follows: steady-state hydrolysis kinetics at […] nm, Km by Lineweaver-Burk plot. It is filed as biochemical.

T1 sequence (C7C422 29-270 limits assumed): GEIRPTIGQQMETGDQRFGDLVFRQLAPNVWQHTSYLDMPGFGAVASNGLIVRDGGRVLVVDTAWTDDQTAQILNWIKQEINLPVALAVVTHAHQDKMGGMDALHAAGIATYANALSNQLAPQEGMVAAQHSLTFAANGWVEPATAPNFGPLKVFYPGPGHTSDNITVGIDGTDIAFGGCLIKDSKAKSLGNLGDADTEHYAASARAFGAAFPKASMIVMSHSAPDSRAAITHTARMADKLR

On to `Cc1cc(C)c(NC(=O)CSc2ncc3c(n2)-c2ccc(Cl)cc2N(C)S3(=O)=O)c(C)c1` [VNI-24], for which, in assay [1], half-maximal inhibition (IC50) required 37.6 ± 0.9 µM.
Consider `O=C(Cc1cccs1)N[C@@H]1C(=O)N2C(C(=O)O)=C(/C=C/c3ccc([N+](=O)[O-])cc3[N+](=O)[O-])CS[C@H]12` [nitrocefin], for which, in assay [2], the Km (in general, the substrate concentration at which the rate is half of its maximum) came out at 9.54 ± 0.43 µM.
For `O=C(Nc1cccc2ccccc12)C1CCN(S(=O)(=O)c2cccc3nonc23)CC1` [VNI-41], the IC50 (commonly the concentration that gives 50% inhibition) in assay [1] was determined as 29.6 ± 1.3 µM.
As to `CCOc1ccc(S(=O)(=O)N2CCN(c3cc(Nc4ccc(C)cc4)nc(C)n3)CC2)cc1` [VNI-34], the IC50 in assay [1] came to 31.4 ± 1.2 µM.
